Assays:
[1] = target: T1, CDK2/cyclin A2 (Homo sapiens, UniProt P24941); test: Human CDK2/cyclin A2 inhibitory activity (QS S Assist CDK2/Cyclin A2_FP Kit, IMAP fluorescent polarization); type: biochemical; conditions: read-out: CDK2 Activity symbol
T1 construct: purchased Carna Biosciences, Inc. QS S Assist CDK2/Cyclin A2_FP Kit
Protocol: Human CDK2/Cyclin A2 Inhibitory Activity
(§1) Each compound was analyzed for CDK2/cyclin A2 inhibitory activity with an assay kit (QS S Assist CDK2/Cyclin A2_FP Kit, available from Carna Biosciences, Inc.). This assay kit determines kinase activity on the basis of the IMAP technology by Molecular Devices. Specifically, the kinase activity is determined through quantification of a variation in fluorescent polarization caused by binding of a kinase-phosphorylated fluorescent substance to an IMAP-binding reagent.
An assay buffer was prepared by 10-fold dilution of the 10× assay buffer attached to the kit with distilled water, and each solution was prepared with the assay buffer. The assay buffer contained 20 mM HEPES (pH 7.4), 0.01% Tween 20, and 2 mM dithiothreitol. A test compound solution was prepared by dilution of the test compound with dimethyl sulfoxide (DMSO) to a concentration 100 times higher than the final concentration and then 25-fold dilution with the assay buffer to a concentration four times higher than the final concentration. An ATP/substrate/Metal solution was prepared by five-fold dilution of the 5×ATP/substrate/Metal solution attached to the kit with the assay buffer. An enzyme solution was prepared by dilution of the CDK2/cyclin A2 attached to the kit with the assay buffer to a concentration twice higher than the final concentration (final concentration of CDK2/cyclin A2: 2.5 ng/well). A detection reagent was prepared by five-fold dilution of 5×IMAP-binding buffer A with distilled water and 400-fold dilution of the IMAP-binding reagent with the diluted buffer.
(§2) The test compound solution (5 μL/well) and the ATP/substrate/Metal solution (5 μL/well) were added to a 384-well plate, and the enzyme solution or the assay buffer (10 μL/well) was added to the plate (total amount of the reaction mixture: 20 μL/well) for initiation of enzymatic reaction. […] The reaction was performed at room temperature for 60 minutes, and the detection reagent (60 μL/well) was then added to the plate, followed by further reaction for 30 minutes at room temperature under light shielding conditions. Subsequently, fluorescent polarization was determined with a microplate reader at an excitation wavelength of 485 nm and an emission wavelength of 535 nm.
The percent inhibition of enzyme activity was calculated for each test compound (note: enzyme activity=100% in the case of addition of the enzyme solution and addition of DMSO instead of the test compound solution, whereas enzyme activity […] in the case of addition of the assay buffer instead of the enzyme solution and addition of DMSO instead of the test compound solution). The percent inhibition of enzyme activity was fitted to a dose-response curve, to determine a 50% inhibitory concentration against CDK2/cyclin A2.
In each table, “+++” corresponds to IC50<10 nM, “++” 10 nM≤IC50<100 nM, and “+” 100 nM≤IC50.

[2] = target: T2, CDK4/cyclin D3 (Homo sapiens, UniProt P11802); test: Human CDK4/cyclin D3 inhibitory activity (QS S Assist CDK4/Cyclin D3_FP Kit, IMAP fluorescent polarization); type: biochemical; conditions: read-out: CDK4 Activity symbol
T2 construct: purchased Carna Biosciences, Inc. QS S Assist CDK4/Cyclin D3_FP Kit
T2 sequence (P11802 whole entry): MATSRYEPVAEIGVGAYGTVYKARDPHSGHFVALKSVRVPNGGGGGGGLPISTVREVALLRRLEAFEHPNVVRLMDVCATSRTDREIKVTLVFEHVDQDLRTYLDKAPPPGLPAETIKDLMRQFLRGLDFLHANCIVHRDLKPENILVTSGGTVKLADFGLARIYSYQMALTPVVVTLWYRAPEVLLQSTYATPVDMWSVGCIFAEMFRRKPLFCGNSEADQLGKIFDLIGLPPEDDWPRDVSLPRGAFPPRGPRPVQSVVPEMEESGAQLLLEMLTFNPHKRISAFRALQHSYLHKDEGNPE
T2 sequence (P30281 whole entry partner): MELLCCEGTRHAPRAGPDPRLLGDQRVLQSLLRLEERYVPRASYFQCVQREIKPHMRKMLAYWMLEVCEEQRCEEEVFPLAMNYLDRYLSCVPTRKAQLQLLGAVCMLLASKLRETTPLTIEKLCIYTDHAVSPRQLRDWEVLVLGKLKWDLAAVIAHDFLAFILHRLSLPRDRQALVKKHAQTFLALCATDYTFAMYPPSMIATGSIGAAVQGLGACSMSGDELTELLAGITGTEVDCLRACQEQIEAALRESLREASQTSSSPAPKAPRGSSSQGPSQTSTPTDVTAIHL
Protocol: Human CDK4/Cyclin D3 Inhibitory Activity
as §1, with “CDK4/cyclin D3” for “CDK2/cyclin A2”, “CDK4/Cyclin D3_FP” for “CDK2/Cyclin A2_FP”
Each solution was prepared with the 10× assay buffer attached to the kit or a separately prepared assay buffer having the same composition as the assay buffer attached to the kit. An assay buffer was prepared by 10-fold dilution of the 10× assay buffer with distilled water. The assay buffer contains 20 mM HEPES (pH 7.4), 0.01% Tween20, and 2 mM dithiothreitol. A test compound solution was prepared by dilution of the test compound with dimethyl sulfoxide (DMSO) to a concentration 100 times higher than the final concentration and then 25-fold dilution with the assay buffer to a concentration four times higher than the final concentration. An ATP/substrate/Metal solution was prepared by five-fold dilution of the 5×ATP/substrate/Metal solution attached to the kit with the assay buffer. An enzyme solution was prepared by dilution of the CDK4/cyclin D3 attached to the kit with the assay buffer to a concentration twice higher than the final concentration (final concentration of CDK4/cyclin D3: 12.5 to 25 ng/well). A detection reagent was prepared by five-fold dilution of each of 5×IMAP-binding buffer A and 5×IMAP-binding buffer B with distilled water, mixing of IMAP-binding buffer A with IMAP-binding buffer B at a ratio of 85:15, and 400-fold dilution of the IMAP-binding reagent with the mixed buffer.
as §2, with “for 45” for “for 60”
The percent inhibition of enzyme activity was calculated for each test compound (note: enzyme activity=100% in the case of addition of the enzyme solution and addition of DMSO instead of the test compound solution, whereas enzyme activity […] in the case of addition of the assay buffer instead of the enzyme solution, and addition of DMSO instead of the test compound solution). The percent inhibition of enzyme activity was fitted to a dose-response curve, to determine a 50% inhibitory concentration against CDK4/cyclin D3.
In each table, “+++” corresponds to IC50<10 nM. “++” 10 nM […] IC50<100 nM, and “+” 100 nM≤IC50.

C[C@@H](O)c1cc2cnc(Nc3ccc(CN4CCNCC4)cn3)nc2c(N2CCCC2C(=O)O)n1 (stereo partly drawn) [Compound 42]
IC50 [1]: ≥ 0.1 µM | IC50 [2]: ≥ 0.1 µM

C[C@@H](O)c1cc2cnc(Nc3ccc(CN4CCN(CCO)CC4)cn3)nc2c(N2CCC2)n1 [Compound 47]
IC50 [1]: ≥ 0.1 µM | IC50 [2]: 0.01 to 0.1 µM

C[C@@H](O)c1cc2cnc(Nc3ccc(CN4CCN(CCO)CC4)cn3)nc2c(N2CCCC2)n1 [Compound 48]
IC50 [1]: ≥ 0.1 µM | IC50 [2]: < 0.01 µM

C[C@@H](O)c1cc2cnc(Nc3ccc(CN4CCN(CCO)CC4)cn3)nc2c(N2CCCCC2)n1 [Compound 49]
IC50 [1]: ≥ 0.1 µM | IC50 [2]: < 0.01 µM

C[C@@H](O)c1cc2cnc(Nc3ccc(N4CCNCC4=O)cn3)nc2c(N2CCC2)n1 [Compound 50]
IC50 [1]: ≥ 0.1 µM | IC50 [2]: 0.01 to 0.1 µM

C[C@@H](O)c1cc2cnc(Nc3ccc(N4CCNCC4=O)cn3)nc2c(N2CCCC2)n1 [Compound 51]
IC50 [1]: ≥ 0.1 µM | IC50 [2]: < 0.01 µM

C[C@@H](O)c1cc2cnc(Nc3ccc(N4CCNCC4=O)cn3)nc2c(N2CCCCC2)n1 [Compound 52]
IC50 [1]: ≥ 0.1 µM | IC50 [2]: < 0.01 µM

Cc1nc(Nc2ncc3cc([C@@H](C)O)nc(N4CCCC4)c3n2)ccc1N1CCN(C)CC1 [Compound 53]
IC50 [1]: ≥ 0.1 µM | IC50 [2]: < 0.01 µM

Cc1nc(Nc2ncc3cc([C@@H](C)O)nc(N4CCCCC4)c3n2)ccc1N1CCN(C)CC1 [Compound 54]
IC50 [1]: ≥ 0.1 µM | IC50 [2]: < 0.01 µM

C[C@@H](O)c1cc2cnc(Nc3ccc(CN4CCN(C)CC4)cn3)nc2c(N2CCCC2)n1 [Compound 55]
IC50 [1]: ≥ 0.1 µM | IC50 [2]: < 0.01 µM

C[C@@H](O)c1cc2cnc(Nc3ccc(CN4CCN(C)CC4)cn3)nc2c(N2CCCCC2)n1 [Compound 56]
IC50 [1]: ≥ 0.1 µM | IC50 [2]: < 0.01 µM

C[C@@H](O)c1cc2cnc(Nc3ccc(CN4CCN(CCO)CC4)cn3)nc2c(N2CC3(CCC3)C2)n1 [Compound 57]
IC50 [1]: ≥ 0.1 µM | IC50 [2]: < 0.01 µM

C[C@@H](O)c1cc2cnc(Nc3ccc(CN4CCN(CCO)CC4)cn3)nc2c(N2CCOCC2)n1 [Compound 58]
IC50 [1]: ≥ 0.1 µM | IC50 [2]: 0.01 to 0.1 µM

C[C@@H](O)c1cc2cnc(Nc3ccc(CN4CCN(CCO)CC4)cn3)nc2c(N2CCCCCC2)n1 [Compound 59]
IC50 [1]: ≥ 0.1 µM | IC50 [2]: < 0.01 µM

C[C@@H](O)c1cc2cnc(Nc3ccc4c(n3)CCN(CCN(C)C)C4)nc2c(N2CCCCC2)n1 [Compound 60]
IC50 [1]: ≥ 0.1 µM | IC50 [2]: < 0.01 µM

C[C@@H](O)c1cc2cnc(Nc3ccc4c(n3)CCN(CCN(C)C)C4)nc2c(N2CCC(F)CC2)n1 [Compound 61]
IC50 [1]: ≥ 0.1 µM | IC50 [2]: < 0.01 µM

C[C@@H](O)c1cc2cnc(Nc3ccc4c(n3)CCNC4)nc2c(N2CCCCC2)n1 [Compound 62]
IC50 [1]: ≥ 0.1 µM | IC50 [2]: < 0.01 µM

C[C@@H](O)c1cc2cnc(Nc3ccc4c(n3)CCNC4)nc2c(N2CCC(F)CC2)n1 [Compound 63]
IC50 [1]: ≥ 0.1 µM | IC50 [2]: < 0.01 µM

C[C@@H](O)c1cc2cnc(Nc3ccc(N4CCNCC4=O)cn3)nc2c(N2CCC(F)(F)CC2)n1 [Compound 64]
IC50 [1]: ≥ 0.1 µM | IC50 [2]: < 0.01 µM

C[C@@H](O)c1cc2cnc(Nc3ccc(CN4CCC(O)CC4)cn3)nc2c(N2CCCCC2)n1 [Compound 65]
IC50 [1]: ≥ 0.1 µM | IC50 [2]: < 0.01 µM

C[C@@H](O)c1cc2cnc(Nc3ccc(CN4CCC(O)CC4)cn3)nc2c(N2CCCC2)n1 [Compound 66]
IC50 [1]: ≥ 0.1 µM | IC50 [2]: 0.01 to 0.1 µM

C[C@@H](O)c1cc2cnc(Nc3ccc(CN4CCC(O)CC4)cn3)nc2c(N2CCOCC2)n1 [Compound 67]
IC50 [1]: ≥ 0.1 µM | IC50 [2]: 0.01 to 0.1 µM

C[C@@H](O)c1cc2cnc(Nc3ccc(CN4CCC(CO)CC4)cn3)nc2c(N2CCCCC2)n1 [Compound 68]
IC50 [1]: ≥ 0.1 µM | IC50 [2]: < 0.01 µM

C[C@@H](O)c1cc2cnc(Nc3ccc(CN4CCC(CO)CC4)cn3)nc2c(N2CCCC2)n1 [Compound 69]
IC50 [1]: ≥ 0.1 µM | IC50 [2]: < 0.01 µM

C[C@@H](O)c1cc2cnc(Nc3ccc(CN4CCC(CO)CC4)cn3)nc2c(N2CCOCC2)n1 [Compound 70]
IC50 [1]: ≥ 0.1 µM | IC50 [2]: 0.01 to 0.1 µM

C[C@@H](O)c1cc2cnc(Nc3ccc(N4CCN(C)CC4=O)cn3)nc2c(N2CCCCC2)n1 [Compound 72]
IC50 [1]: ≥ 0.1 µM | IC50 [2]: < 0.01 µM

C[C@@H](O)c1cc2cnc(Nc3ccc(N4CCN(C)CC4=O)cn3)nc2c(N2CCCC2)n1 [Compound 73]
IC50 [1]: ≥ 0.1 µM | IC50 [2]: 0.01 to 0.1 µM

C[C@@H](O)c1cc2cnc(Nc3ccc(N4CCN(C)CC4=O)cn3)nc2c(N2CCOCC2)n1 [Compound 74]
IC50 [1]: ≥ 0.1 µM | IC50 [2]: 0.01 to 0.1 µM

C[C@@H](O)c1cc2cnc(Nc3ccc(CN4CCN(CCO)CC4)cn3)nc2c(N2CCCC2(C)C)n1 [Compound 75]
IC50 [1]: 0.01 to 0.1 µM | IC50 [2]: < 0.01 µM

C[C@@H](O)c1cc2cnc(Nc3ccc(CN4CCN(CCO)CC4)cn3)nc2c(N2CCC(C(=O)O)CC2)n1 [Compound 76]
IC50 [1]: ≥ 0.1 µM | IC50 [2]: < 0.01 µM

C[C@@H](O)c1cc2cnc(Nc3ccc(CN4CCN(CCO)CC4)cn3)nc2c(N2CCN(C)CC2)n1 [Compound 77]
IC50 [1]: ≥ 0.1 µM | IC50 [2]: 0.01 to 0.1 µM

C[C@@H](O)c1cc2cnc(Nc3ccc(CN4CCN(CCO)CC4)cn3)nc2c(N2CCC(F)CC2)n1 [Compound 78]
IC50 [1]: ≥ 0.1 µM | IC50 [2]: < 0.01 µM

C[C@@H](O)c1cc2cnc(Nc3ccc(CN4CCN(CCO)CC4)cn3)nc2c(N2CCC(F)(F)CC2)n1 [Compound 79]
IC50 [1]: ≥ 0.1 µM | IC50 [2]: < 0.01 µM

C[C@@H](O)c1cc2cnc(Nc3ccc4c(n3)CCNC4)nc2c(N2CCC(F)(F)CC2)n1 [Compound 80]
IC50 [1]: ≥ 0.1 µM | IC50 [2]: < 0.01 µM

C[C@@H](O)c1cc2cnc(Nc3ccc4c(n3)CCN(CCO)C4)nc2c(N2CCC(F)(F)CC2)n1 [Compound 81]
IC50 [1]: ≥ 0.1 µM | IC50 [2]: < 0.01 µM

C[C@@H](O)c1cc2cnc(Nc3ccc4c(n3)CCN(CCN(C)C)C4)nc2c(N2CCC(F)(F)CC2)n1 [Compound 82]
IC50 [1]: ≥ 0.1 µM | IC50 [2]: < 0.01 µM

CC(O)c1cc2cnc(Nc3ccc(CN4CCN(CCO)CC4)cn3)nc2c(N2CCCC2C)n1 (stereo not drawn) [Compound 83]
IC50 [1]: 0.01 to 0.1 µM | IC50 [2]: < 0.01 µM

C[C@@H](O)c1cc2cnc(Nc3ccc(CN4CCN(CCO)CC4)cn3)nc2c(N2CCC(C(F)(F)F)CC2)n1 [Compound 84]
IC50 [1]: ≥ 0.1 µM | IC50 [2]: < 0.01 µM

C[C@@H](O)c1cc2cnc(Nc3ccc(CN4CCN(CCO)CC4)cn3)nc2c(N2CCS(=O)(=O)CC2)n1 [Compound 85]
IC50 [1]: ≥ 0.1 µM | IC50 [2]: 0.01 to 0.1 µM
